{"source": "patent US11773146B2", "about": "“Disruption of the WAVE3 protein complex for suppression of invasion and metastasis” (UNIVERSITY OF GEORGIA RESEARCH FOUNDATION, INC., priority 2015, dated 2023)", "key": {"MDA-MB-231 cells [1]": {"test_system": "MDA-MB-231 cells", "assay": "Transwell invasion assay (WANT peptides)", "format": "cell-based", "source_text": "There are currently no small molecules that target WASF3 function directly, but targeting the WRC may provide a means of suppressing invasion."}, "[2]": {"test_system": "MDA-MB-231 and Hs578T cells", "assay": "Cell proliferation, viability and toxicity with WANT3", "format": "cell-based", "source_text": "(§1) MDA-MB-231, Hs578T and T47D breast cancer cell lines were obtained directly from American Type Culture Collection (Rockville, Md.). MDA-MB-231 and T47D and have been verified using SNP-CGH (Teng Y, et al. Int J Cancer 2011 129:2825-2835) for characteristic cytogenetic changes. The ATCC Cell Authentication Testing service confirmed the identity of Hs578T using STR DNA fingerprinting analysis. Standard cell culture, transient transfections, RT-PCR, western blotting, immunoprecipitation (IP), flow cytometry, Biotin-Avidin pulldown, lentiviral transduction, cell proliferation and Transwell invasion assays were carried out as described previously (Teng Y, et al. Int J Cancer 2011 129:2825-2835; Teng Y, et al. J Biol Chem 2012 287:10051-10059; Teng Y, et al. Carcinogenesis 2013 34:1994-1999)."}, "WASF3": {"test_system": "WASF3", "assay": "Western blot of WASF3 stability after WANT3", "format": "cell-based", "source_text": "as §1"}, "NCKAP1": {"test_system": "NCKAP1", "assay": "Western blot of NCKAP1 protein after WANT3", "format": "cell-based", "conditions": "10 μM", "source_text": "as §1"}, "[3]": {"biological_target": "T1, WASF3 complex (Homo sapiens)", "T1 construct": "endogenous in cells; host or cells: MDA-MB-231", "T1 sequence (Q7L576 whole entry, one chain of several)": "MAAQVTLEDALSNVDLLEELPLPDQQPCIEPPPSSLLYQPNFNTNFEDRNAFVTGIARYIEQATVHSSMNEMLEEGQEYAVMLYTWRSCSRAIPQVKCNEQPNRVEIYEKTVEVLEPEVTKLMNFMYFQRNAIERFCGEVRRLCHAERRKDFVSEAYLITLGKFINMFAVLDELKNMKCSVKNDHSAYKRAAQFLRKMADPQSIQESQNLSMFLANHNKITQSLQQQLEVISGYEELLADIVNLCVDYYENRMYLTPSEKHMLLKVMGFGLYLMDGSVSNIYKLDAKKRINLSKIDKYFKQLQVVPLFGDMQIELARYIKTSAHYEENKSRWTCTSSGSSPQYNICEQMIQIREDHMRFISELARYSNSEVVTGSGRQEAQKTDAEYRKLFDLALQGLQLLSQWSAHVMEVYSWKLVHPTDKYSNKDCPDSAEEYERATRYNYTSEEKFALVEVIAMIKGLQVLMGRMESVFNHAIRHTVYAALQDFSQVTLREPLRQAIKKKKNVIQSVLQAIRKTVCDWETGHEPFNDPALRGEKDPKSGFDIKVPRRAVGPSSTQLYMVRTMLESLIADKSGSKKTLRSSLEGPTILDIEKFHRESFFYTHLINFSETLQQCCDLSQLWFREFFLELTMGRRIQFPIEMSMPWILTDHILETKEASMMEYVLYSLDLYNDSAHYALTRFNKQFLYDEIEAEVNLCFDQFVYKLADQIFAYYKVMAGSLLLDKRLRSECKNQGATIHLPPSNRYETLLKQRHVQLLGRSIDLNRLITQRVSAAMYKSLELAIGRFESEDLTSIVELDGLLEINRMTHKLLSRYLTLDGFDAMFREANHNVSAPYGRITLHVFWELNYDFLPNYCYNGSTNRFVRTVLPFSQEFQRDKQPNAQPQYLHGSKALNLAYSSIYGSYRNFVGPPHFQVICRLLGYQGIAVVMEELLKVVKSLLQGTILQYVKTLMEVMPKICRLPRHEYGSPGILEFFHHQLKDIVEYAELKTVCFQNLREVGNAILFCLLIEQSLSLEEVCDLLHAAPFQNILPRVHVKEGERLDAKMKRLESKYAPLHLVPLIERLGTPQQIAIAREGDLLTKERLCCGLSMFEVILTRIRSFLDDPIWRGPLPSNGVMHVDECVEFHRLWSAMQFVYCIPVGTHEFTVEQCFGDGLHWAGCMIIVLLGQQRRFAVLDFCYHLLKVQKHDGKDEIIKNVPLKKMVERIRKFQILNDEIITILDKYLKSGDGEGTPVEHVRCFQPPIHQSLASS", "assay": "IP of WASF3 complex after WANT3 or WAHM1 (phosphoactivation, RAC1 engagement)", "format": "cell-based", "conditions": "MDA-MB-231 cells", "source_text": "as §1"}, "MDA-MB-231 cells [4]": {"test_system": "MDA-MB-231 cells", "conditions": "37° C., after 7 days", "method": "To evaluate the stability of these SPs, WANT3 was incubated in serum containing medium for varying lengths of time (1-7 days) at 37° C. and then this medium was added to MDA-MB-231 cells to evaluate the ability of the preincubated peptides to suppress invasion."}, "[5]": {"conditions": "concentration range of 2.5-20 μM"}}, "note": "“Also recorded” adds a separate entry of the source. Bridges are numbered along the chain shown (N, C = ends). Where no end group is shown, it is not given here. [ ]: non-standard residue; d: D form. S5 = C=CCCC[C@](C)(N)C(=O)O", "data": [{"sequence": "VLXRNAXHAVYK (VL[S5]RNA[S5]HAVYK-NH2; staple 3-7; not fully specified (N-terminus); also: FITC label (in alias), site not given here) [WANT3]", "values": [{"measurement": "suppression of invasion, WAHM1 compared with WANT3", "setting": "MDA-MB-231 cells [1]", "value": "comparable suppression of invasion"}, {"measurement": "invasion potential", "setting": "MDA-MB-231 cells [1]; final concentration of 10 μM", "value": "highly significant suppression of invasion; also recorded: significantly suppresses"}, {"measurement": "invasion at increased concentration", "setting": "MDA-MB-231 cells [1]; high dose 20 μM compared with low dose", "value": "greater suppression of invasion; also recorded: more remarkable reduction"}, {"measurement": "cell proliferation", "setting": "[2]; 10 μM", "value": "without affecting cell proliferation"}, {"measurement": "in vitro cell toxicity", "setting": "[2]; 10 μM", "value": "minimal"}, {"measurement": "cell proliferation rate", "setting": "[2]; [5]", "value": "does not affect"}, {"measurement": "viability", "setting": "[2]; [5]", "value": "does not affect"}, {"measurement": "concentration achieving maximal effect on WASF3 stability", "setting": "WASF3", "value": 20, "unit": "µM"}, {"measurement": "WASF3 stability / protein levels", "setting": "WASF3; 10 μM, compared with scrambled peptide", "value": "significant destabilization of WASF3; also recorded: suppresses both WASF3 and NCKAP1 protein levels"}, {"measurement": "destabilization of WASF3, WANT3 compared with WHAM1", "setting": "WASF3; MDA-MB-231 cells", "value": "more efficient in destabilizing WASF3"}, {"measurement": "dose dependence of WASF3 destabilization", "setting": "WASF3; MDA-MB-231 cells", "value": "suppresses WASF3 protein levels in a dose-dependent manner; also recorded: dose-dependent destabilization of the WASF3 protein"}, {"measurement": "NCKAP1 protein levels", "setting": "NCKAP1", "value": "loss of the NCKAP1 protein; also recorded: suppresses both WASF3 and NCKAP1 protein levels"}, {"measurement": "engagement of RAC1 with the WASF3 complex, WANT3 compared with WHAM1", "setting": "[3]", "value": "more significant"}, {"measurement": "phosphoactivation of WASF3, WANT3 compared with WAHM1", "setting": "[3]", "value": "more significantly"}, {"measurement": "suppression of invasion after preincubation in serum-containing medium", "setting": "MDA-MB-231 cells [4]", "value": "residual effect on suppression of invasion"}]}]}
